These results are taken from ChEMBL document CHEMBL4261607 (Eur J Med Chem, 2018).

Data set [1] in a line: Cytotoxicity against MDCK cells assessed as reduction in cell viability after 24 hrs by MTT assay. Conditions: dog; call rule not given here. It is filed as cell-based, Canis lupus familiaris.
Data set [2] in a line: Cytotoxicity in yeast assessed as reduction in cell proliferation. It is filed as organism-based. Conditions: saccharomyces cerevisiae, yeast cells.
A further data set deals with Influenza A virus. The experiment in a line: Antiviral activity against Influenza A virus H5N1 infected in MDCK cells after 2 to 3 days by crystal violet staining-based plaque reduction assay. It is filed as functional, organism-based. Background: In a plaque reduction assay, fewer plaques than in the control indicate reduced infectivity or spread.
Data set [3] concerns the target Matrix protein 2 (Influenza A virus (A/Udorn/307/1972(H3N2)), UniProt P0DOF8).

Sequence of Matrix protein 2 (Influenza A virus (A/Udorn/307/1972(H3N2)), UniProt P0DOF8) (P0DOF8 whole entry): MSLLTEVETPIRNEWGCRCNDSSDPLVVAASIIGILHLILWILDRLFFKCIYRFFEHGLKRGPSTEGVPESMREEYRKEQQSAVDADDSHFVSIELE

For `N#CCCN(Cc1cccs1)S(=O)(=O)c1cccc(F)c1`, the CC50 at 24 h in data set [1] was greater than 206 µM. Further, in data set [2], the CC50 was greater than 206 µM.
Consider `N#CCCN(Cc1cccs1)S(=O)(=O)c1ccc(C#N)cc1`, for which the CC50 at 24 h in data set [1] was greater than 201 µM. The CC50 in data set [2] is greater than 202 µM.
Turning to `N#CCCN(Cc1ccco1)S(=O)(=O)c1ccc(Cl)cc1`, the CC50 at 24 h in data set [1] was greater than 205 µM. Besides, the CC50 in data set [2] is greater than 206 µM.
Regarding `CCOC(=O)CCN(Cc1cccs1)S(=O)(=O)c1ccc(Br)cc1`, the CC50 at 24 h in data set [1] was greater than 154 µM. In addition, in data set [2], the CC50 is greater than 155 µM.
For the compound `CCCN(Cc1cccs1)S(=O)(=O)c1ccc(Br)cc1`, in data set [1], the CC50 at 24 h was greater than 178 µM. Moreover, the cytotoxic concentration (CC50) in data set [2] was greater than 179 µM.
With `N#CCCN(Cc1cccs1)S(=O)(=O)c1ccc(C(F)(F)F)cc1`, the 50% cytotoxic concentration (CC50) at 24 h in data set [1] was greater than 178 µM. Moreover, the cytotoxic concentration (CC50) in data set [2] is greater than 179 µM.
Consider `Cc1ccc(S(=O)(=O)N(CCC#N)Cc2ccco2)cc1`, for which the half-maximal cytotoxic concentration (CC50) at 24 h in data set [1] is greater than 219 µM. Moreover, in data set [2], the 50% cytotoxic concentration (CC50) was greater than 220 µM.
For `N#CCCN(Cc1ccc[nH]1)S(=O)(=O)c1ccc(Br)cc1`, in data set [1], the CC50 at 24 h was greater than 181 µM. In addition, the CC50 in data set [2] is greater than 182 µM.
Consider `COc1ccc(S(=O)(=O)N(CCC#N)Cc2ccco2)cc1`, for which the CC50 at 24 h in data set [1] was greater than 208 µM. Besides, the CC50 in data set [2] was greater than 209 µM.
`N#CCCN(Cc1cccs1)S(=O)(=O)c1ccc(F)cc1`: the CC50 at 24 h in data set [1] was greater than 206 µM. Besides, the CC50 in data set [2] was greater than 206 µM.
Regarding `N#CCCN(Cc1cccs1)S(=O)(=O)c1ccc(N)cc1`, the 50% cytotoxic concentration (CC50) at 24 h in data set [1] was greater than 208 µM. In addition, the CC50 in data set [2] is greater than 179 µM.
The matching figures for `COc1ccc(S(=O)(=O)N(CCC#N)Cc2cccs2)cc1`: greater than 198 µM and greater than 199 µM.
With `Cc1ccc(S(=O)(=O)N(CCC#N)Cc2cccs2)cc1`, the half-maximal cytotoxic concentration (CC50) at 24 h in data set [1] was found to be 127 µM. Further, the CC50 in data set [2] is greater than 209 µM.
As to `N#CCCN(Cc1ccco1)S(=O)(=O)c1ccc(C(F)(F)F)cc1`, in data set [1], the CC50 at 24 h was greater than 186 µM. Further, in data set [2], the CC50 was greater than 187 µM.
As for `Cc1cc(C(=O)NCCSCc2ccc([N+](=O)[O-])cc2)c(C)o1`, a half-maximal effect with Influenza A virus (EC50) was put at 1.25 µM.
As for `N#CCCN(Cc1cccs1)S(=O)(=O)c1ccccc1F`, the CC50 at 24 h in data set [1] was greater than 206 µM. In addition, in data set [2], the CC50 is greater than 206 µM.
For the compound `O=S(=O)(c1ccc(Br)cc1)N(Cc1cccs1)Cc1cccs1`, the half-maximal cytotoxic concentration (CC50) at 24 h in data set [1] came to 81 µM. Moreover, the half-maximal cytotoxic concentration (CC50) in data set [2] was greater than 156 µM.
Turning to `N#CCCN(Cc1ccco1)S(=O)(=O)c1ccc(F)cc1`, the cytotoxic concentration (CC50) at 24 h in data set [1] fell in the range of 216 to 227 µM. Besides, the CC50 in data set [2] was 216 to 217 µM.
Consider `N#CCCN(Cc1ccco1)S(=O)(=O)c1ccc(C#N)cc1`, for which, in data set [1], the 50% cytotoxic concentration (CC50) at 24 h was greater than 212 µM. In addition, in data set [2], the cytotoxic concentration (CC50) is greater than 212 µM.
In the case of `O=C(O)CCN(Cc1cccs1)S(=O)(=O)c1ccc(Br)cc1`, the CC50 at 24 h in data set [1] was greater than 165 µM. Besides, in data set [2], the CC50 is greater than 166 µM.
For `N#CCCN(Cc1cccs1)S(=O)(=O)c1ccc(Cl)cc1`, the CC50 at 24 h in data set [1] was greater than 196 µM. Besides, the cytotoxic concentration (CC50) in data set [2] was greater than 197 µM.
In the case of `CC(=O)c1ccc(S(=O)(=O)N(CCC#N)Cc2cccs2)cc1`, the CC50 at 24 h in data set [1] is greater than 191 µM. The CC50 in data set [2] was greater than 192 µM.
With `N#CCCN(Cc1cccs1)S(=O)(=O)c1ccc([N+](=O)[O-])cc1`, in data set [1], the cytotoxic concentration (CC50) at 24 h was greater than 190 µM. The half-maximal cytotoxic concentration (CC50) in data set [2] was greater than 191 µM.
As to `N#CCCN(Cc1ccccc1)S(=O)(=O)c1ccc(F)cc1`, in data set [1], the CC50 at 24 h is greater than 210 µM. Moreover, the CC50 in data set [2] was greater than 210 µM.
In the case of `N#CCCN(Cc1ccco1)S(=O)(=O)c1ccc(Br)cc1`, the CC50 at 24 h in data set [1] was greater than 181 µM. Further, in data set [2], the half-maximal cytotoxic concentration (CC50) was greater than 182 µM.
As to `CCCN(CCC#N)S(=O)(=O)c1ccc(Br)cc1`, the cytotoxic concentration (CC50) at 24 h in data set [1] was found to be 116 µM. In addition, the CC50 in data set [2] is greater than 202 µM.
The matching figures for `Cc1cccc(S(=O)(=O)N(CCC#N)Cc2ccco2)c1`: greater than 219 µM and greater than 220 µM.
In the case of `N#CCCN(Cc1cccs1)S(=O)(=O)c1ccc(Br)cc1`, in data set [1], the CC50 at 24 h was greater than 173 µM. Further, the CC50 in data set [2] is greater than 174 µM.
With `NC12CC3CC(CC(C3)C1)C2` [AMANTADINE], the CC50 at 24 h in data set [1] is greater than 441 µM. Also, the 50% cytotoxic concentration (CC50) in data set [2] was greater than 443 µM.
Regarding `CCOC(=O)C1=C[C@@H](OC(CC)CC)[C@H](NC(C)=O)[C@@H](N)C1` [OSELTAMIVIR], in data set [3], the EC50 result is on record as “Not Active”. The CC50 in data set [2] was greater than 214 µM.

As a reminder, the CC50 is the concentration at which the toxic effect on the cells reaches its halfway point. Broadly, the EC50 is the concentration that produces a half-maximal response. High values mean a need for much substance, low ones an effect from little substance.
